Measurements from patent US20210139484A1, “DIHYDROISOQUINOLINE-2(1H)-CARBOXAMIDE AND RELATED COMPOUNDS AND THEIR USE IN TREATING MEDICAL CONDITIONS” (GOSSAMER BIO SERVICES, INC., priority 2018, published 2021).
pIC50: −log10 of the molar value.

The compounds below were run against T1, human HPK1 protein (Homo sapiens, UniProt Q92918) (assay: Human HPK1 protein TR-FRET assay). Conditions: 1 mM ATP, Table 19.
T1 construct: recombinant human HPK1 protein (a.a. 1-346) was expressed in Sf9 insect cells; GST (N); purchased Signalchem M23-11G; host or cells: Sf9 insect cells (baculovirus)
T1 sequence (Q92918 1-346): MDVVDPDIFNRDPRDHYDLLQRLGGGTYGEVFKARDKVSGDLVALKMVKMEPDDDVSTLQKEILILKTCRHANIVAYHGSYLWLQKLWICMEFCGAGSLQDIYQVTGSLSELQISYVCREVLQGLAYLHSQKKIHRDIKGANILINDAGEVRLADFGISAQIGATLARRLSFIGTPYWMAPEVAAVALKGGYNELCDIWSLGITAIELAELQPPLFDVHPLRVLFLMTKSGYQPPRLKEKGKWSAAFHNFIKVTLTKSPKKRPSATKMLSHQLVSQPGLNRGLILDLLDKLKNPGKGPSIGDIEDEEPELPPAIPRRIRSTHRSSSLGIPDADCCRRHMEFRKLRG
Format: biochemical
Method in brief: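 GST-tagged HPK1 (a.a. 1-346, Sf9-expressed) at 10 nM phosphorylated 100 nM ULight CREBtide with 1 mM ATP in Tris pH 7.5, MgCl2, NP-40, DTT, 1% DMSO, 60 minutes at room temperature. Phospho-Ser133 detected by Eu-antibody TR-FRET (665/615 nm ratio); IC50 from 4-parameter fit against DMSO control.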

| Compound | pIC50 |
| --- | --- |
| CCN1CCN(Cc2ccc(NC(=O)N3CCc4cc(Oc5ccnc6[nH]ccc56)ccc4C3)cc2C(F)(F)F)CC1 [X-1] | 5.30 to 6.30 |
| CCN1CCN(Cc2ccc(NC(=O)N3CCc4ccc(Oc5ccnc6[nH]ccc56)cc4C3=O)cc2C(F)(F)F)CC1 [X-2] | 5.30 to 6.30 |
| CCN1CCN(Cc2ccc(NC(=O)N3CCc4ccc(Sc5ncnn6cccc56)cc4C3)cc2C(F)(F)F)CC1 [X-3] | 5.30 to 6.30 |
| CCN1CCN(Cc2ccc(NC(=O)N3CC(C)c4ccc(Oc5ccnc6[nH]ccc56)cc4[C@@H]3C)cc2C(F)(F)F)CC1 (some centres unmarked) [X-4] | < 5.00 |
| CCN1CCN(Cc2ccc(NC(=O)N3CCc4nc(C)c(Oc5ccnc6[nH]ccc56)cc4C3)cc2C(F)(F)F)CC1 [X-5] | > 6.30 |
| Cc1cc2c(Oc3ccc4c(c3)[C@H](C)N(C(=O)Nc3ccc5c(N6CCN(C)CC6)cccc5c3)CC4)ccnc2[nH]1 [X-6] | > 6.30 |
| Cc1cc2c(Oc3ccc4c(c3)[C@H](C)N(C(=O)Nc3cnc5c(N6CCN(C)CC6)cccc5c3)CC4)ccnc2[nH]1 [X-7] | > 6.30 |
| Cc1cc2c(Oc3ccc4c(c3)[C@H](C)N(C(=O)Nc3cnc5c(c3)CCCN5C3CCN(C)CC3)CC4)ccnc2[nH]1 [X-8] | 5.00 to 5.30 |

Now from value to compound:

| pIC50 | Compound |
| --- | --- |
| > 6.30 | CCN1CCN(Cc2ccc(NC(=O)N3CCc4ncc(Oc5ccnc6[nH]ccc56)cc4C3)cc2C(F)(F)F)CC1 [VII-1] |
| 5.30 to 6.30 | CCN1CCN(Cc2ccc(NC(=O)N3CCc4ncc(Oc5ncnc6[nH]ccc56)cc4C3)cc2C(F)(F)F)CC1 [VII-2] |
| > 6.30 | CCN1CCN(Cc2ccc(NC(=O)N3Cc4cc(Oc5ccnc6[nH]c(C)cc56)cnc4C(C)C3)cc2C(F)(F)F)CC1 (centres unmarked) [VII-3] |
| > 6.30 | Cc1cc2c(Oc3cnc4c(c3)CN(C(=O)Nc3cnc(OC5CCN(C)CC5)c(C(F)(F)F)c3)CC4C)ccnc2[nH]1 (centres unmarked) [VII-6] |
| 5.30 to 6.30 | CC1CN(C(=O)Nc2cnc(OC3CCN(C)CC3)c(C(F)(F)F)c2)Cc2cc(Oc3ccnc4[nH]ncc34)cnc21 (centres unmarked) [VII-9] |
| > 6.30 | CC1CN(C(=O)Nc2cnc(OC3CCN(C)CC3)c(C(F)(F)F)c2)Cc2cc(Oc3ccnc4[nH]ncc34)cnc21 (centres unmarked) [VII-10] |
| 5.30 to 6.30 | CC1CN(C(=O)Nc2cnc(OC3CCN(C)CC3)c(C(F)(F)F)c2)Cc2cc(Oc3ccnc4[nH]ncc34)cnc21 (centres unmarked) [VII-11] |
| > 6.30 | Cc1cc2c(Oc3cnc4c(c3)CN(C(=O)Nc3cnc(OC5CCN(C)CC5)c(C(F)(F)F)c3)CC4C)ncnc2[nH]1 (centres unmarked) [VII-12] |
| > 6.30 | Cc1cc2c(Oc3cnc4c(c3)CN(C(=O)Nc3cnc(OC5CCN(C)CC5)c(C(F)(F)F)c3)CC4C)ncnc2[nH]1 (centres unmarked) [VII-13] |
| > 6.30 | Cc1cc2c(Oc3cnc4c(c3)CN(C(=O)Nc3cnc(OC5CCN(C)CC5)c(C(F)(F)F)c3)CC4C)ncnc2[nH]1 (centres unmarked) [VII-14] |
| > 6.30 | CCN1CCN(Cc2ccc(NC(=O)N3Cc4cc(Oc5ccnc6[nH]ncc56)cnc4C(C)C3)cc2C(F)(F)F)CC1 (centres unmarked) [VII-15] |
| > 6.30 | CCN1CCN(Cc2ccc(NC(=O)N3Cc4cc(Oc5ccnc6[nH]ncc56)cnc4C(C)C3)cc2C(F)(F)F)CC1 (centres unmarked) [VII-16] |
| > 6.30 | CCN1CCN(Cc2ccc(NC(=O)N3Cc4cc(Oc5ccnc6[nH]ncc56)cnc4C(C)C3)cc2C(F)(F)F)CC1 (centres unmarked) [VII-17] |
| > 6.30 | CCN1CCN(Cc2ccc(NC(=O)N3Cc4cc(Oc5ncnc6[nH]c(C)cc56)cnc4C(C)C3)cc2C(F)(F)F)CC1 (centres unmarked) [VII-18] |
| > 6.30 | Cc1cc2c(Oc3cnc4c(c3)CN(C(=O)Nc3cnc(OC5CCN(C)CC5O)c(C(F)(F)F)c3)CC4C)ccnc2[nH]1 (centres unmarked) [VII-19] |
| 5.30 to 6.30 | CCN1CCN(Cc2ccc(NC(=O)N3CCc4ncc(Oc5ccnc6[nH]c(C)cc56)cc4C3C)cc2C(F)(F)F)CC1 (centres unmarked) [VIII-1] |
| 5.30 to 6.30 | CCN1CCN(Cc2ccc(NC(=O)N3CCc4ncc(Oc5ccnc6[nH]ncc56)cc4C3C)cc2C(F)(F)F)CC1 (centres unmarked) [VIII-3] |
| 5.30 to 6.30 | CCN1CCN(Cc2ccc(NC(=O)N3CCc4ncc(Oc5ncnc6[nH]c(C)cc56)cc4C3C)cc2C(F)(F)F)CC1 (centres unmarked) [VIII-6] |

Same assay, conditions: 1 mM ATP, Table 20

| Compound | pIC50 |
| --- | --- |
| CCN1CCN(Cc2ccc(NC(=O)N3CCc4ccc(-c5ccc6cc(NC)ncc6c5)cc4C3)cc2C(F)(F)F)CC1 [XI-1] | 5.30 to 6.30 |
| CCN1CCN(Cc2ccc(NC(=O)N3CCc4c(cc(F)cc4Oc4ncnn5cccc45)C3)cc2C(F)(F)F)CC1 [XI-2] | 5.30 to 6.30 |
| CCN1CCN(Cc2ccc(NC(=O)N3CCc4ncc(Oc5ccnc6[nH]ccc56)cc4[C@@H]3C)cc2C(F)(F)F)CC1 [XI-3] | > 6.30 |
| CCN1CCN(Cc2ccc(NC(=O)N3CCc4ncc(Oc5ccnc6[nH]ccc56)cc4[C@H]3C)cc2C(F)(F)F)CC1 [XI-4] | 5.30 to 6.30 |
| CCN1CCN(Cc2ccc(NC(=O)N3Cc4cc(Oc5ccnc6[nH]c(C)cc56)cnc4[C@H](C)C3)cc2C(F)(F)F)CC1 [XI-5] | > 6.30 |
| CCN1CCN(Cc2ccc(NC(=O)N3Cc4cc(Oc5ncnc6[nH]c(C)cc56)cnc4[C@@H](C)C3)cc2C(F)(F)F)CC1 [XI-6] | > 6.30 |
| CCN1CCN(Cc2ccc(NC(=O)N3CCc4ncc(Oc5ncnc6[nH]c(C)cc56)cc4[C@@H]3C)cc2C(F)(F)F)CC1 [XI-7] | 5.30 to 6.30 |
| CCN1CCN(Cc2ccc(NC(=O)N3CCc4ncc(Oc5ncnc6[nH]c(C)cc56)cc4[C@H]3C)cc2C(F)(F)F)CC1 [XI-8] | 5.00 to 5.30 |
| CCN1CCN(Cc2ccc(NC(=O)N3Cc4cc(Oc5ccnc6[nH]ccc56)cnc4[C@@H](C)C3)cc2C(F)(F)F)CC1 [XI-10] | > 6.30 |
| CCN1CCN(Cc2ccc(NC(=O)N3Cc4cc(Oc5ccnc6[nH]ccc56)cnc4[C@H](C)C3)cc2C(F)(F)F)CC1 [XI-11] | > 6.30 |
| CCN1CCN(Cc2ccc(NC(=O)N3CCc4ncc(Oc5cccc6[nH]ccc56)cc4C3C)cc2C(F)(F)F)CC1 (centres unmarked) [XI-12] | < 5.00 |

Now from value to compound:

| pIC50 | Compound |
| --- | --- |
| > 6.30 | CN1CCN(Cc2ncc(NC(=O)N3CCc4ccc(Oc5c(F)cnc6[nH]c(-c7cnn(C)c7)cc56)cc4C3)cc2C(F)(F)F)CC1 [XII-1] |
| > 6.30 | CCN1CCN(Cc2ccc(NC(=O)N3CCc4ccc(Oc5c(F)cnc6[nH]c(-c7cnn(C)c7)cc56)cc4[C@@H]3C)cc2C(F)(F)F)CC1 [XII-2] |
| > 6.30 | C[C@H]1c2cc(Oc3c(F)cnc4[nH]c(-c5cnn(C)c5)cc34)ccc2CCN1C(=O)Nc1ccc(CN2CCN(C)CC2)c(C(F)(F)F)c1 [XII-3] |
| > 6.30 | CN1CC[C@@H](Oc2ncc(NC(=O)N3CCc4ccc(Oc5c(F)cnc6[nH]c(-c7cnn(C)c7)cc56)cc4C3)cc2C(F)(F)F)[C@@H](O)C1 [XII-4] |
| > 6.30 | CN1CCN(Cc2ccc(NC(=O)N3CCc4ccc(Oc5c(F)cnc6[nH]c(-c7ccncc7)cc56)cc4C3)cc2C(F)(F)F)CC1 [XII-5] |
| > 6.30 | CN1CCN(Cc2ncc(NC(=O)N3CCc4ccc(Oc5c(F)cnc6[nH]c(-c7cccnc7)cc56)cc4C3)cc2C(F)(F)F)CC1 [XII-6] |
| > 6.30 | CN1CCN(Cc2ccc(NC(=O)N3CCc4ccc(Oc5c(F)cnc6[nH]c(-c7cccnc7)cc56)cc4C3)cc2C(F)(F)F)CC1 [XII-7] |
| > 6.30 | CN1CCN(Cc2ncc(NC(=O)N3CCc4ccc(Oc5c(F)cnc6[nH]c(-c7cn[nH]c7)cc56)cc4C3)cc2C(F)(F)F)CC1 [XII-8] |
| > 6.30 | CN1CCN(Cc2ccc(NC(=O)N3CCc4ccc(Oc5c(F)cnc6[nH]c(-c7cn[nH]c7)cc56)cc4C3)cc2C(F)(F)F)CC1 [XII-9] |
| > 6.30 | CN1CCN(Cc2ncc(NC(=O)N3CCc4ccc(Oc5c(F)cnc6[nH]c(-c7ccncc7)cc56)cc4C3)cc2C(F)(F)F)CC1 [XII-10] |
| > 6.30 | C[C@H]1CN(C(=O)Nc2cnc(CN3CCN(C)CC3)c(C(F)(F)F)c2)Cc2cc(Oc3c(F)cnc4[nH]c(-c5cnn(C)c5)cc34)ccc21 [XII-11] |
| > 6.30 | C[C@H]1CN(C(=O)Nc2ccc(CN3CCN(C)CC3)c(C(F)(F)F)c2)Cc2cc(Oc3c(F)cnc4[nH]c(-c5cnn(C)c5)cc34)ccc21 [XII-12] |
| > 6.30 | CN1CCC(Oc2ncc(NC(=O)N3CCc4ccc(Oc5c(F)cnc6[nH]c(-c7cnn(C)c7)cc56)cc4C3)cc2C(F)(F)F)CC1 [XII-13] |
| > 6.30 | Cn1cc(-c2cc3c(Oc4ccc5c(c4)CN(C(=O)Nc4ccc(CN6CCN(CCO)CC6)c(C(F)(F)F)c4)CC5)c(F)cnc3[nH]2)cn1 [XII-14] |
| > 6.30 | CCN1CCN(Cc2ccc(NC(=O)N3CCc4ccc(Oc5c(F)cnc6[nH]c(-c7cnn(C)c7)cc56)cc4C3)cc2C(F)(F)F)CC1 [XII-15] |
| > 6.30 | CN1CCN(Cc2cc(F)c(NC(=O)N3CCc4ccc(Oc5c(F)cnc6[nH]c(-c7cnn(C)c7)cc56)cc4C3)cc2C(F)(F)F)CC1 [XII-16] |
| > 6.30 | CC[C@@H]1CN(C)CC[C@H]1Oc1ncc(NC(=O)N2CCc3ccc(Oc4ccnc5[nH]c(C)cc45)cc3[C@@H]2C)cc1C(F)(F)F [XIII-1] |
| > 6.30 | CCN1CCN(Cc2ccc(NC(=O)N3CCc4ccc(Oc5ccnc6[nH]c(CO)cc56)cc4[C@@H]3C)cc2C(F)(F)F)CC1 [XIII-2] |
| > 6.30 | C[C@H]1c2cc(Oc3ccnc4[nH]c(CO)cc34)ccc2CCN1C(=O)Nc1cnc(OC2CCN(C)CC2)c(C(F)(F)F)c1 [XIII-3] |
| > 6.30 | C[C@H]1c2cc(Oc3ccnc4[nH]c(C5(O)COC5)cc34)ccc2CCN1C(=O)Nc1cnc(OC2CCN(C)CC2)c(C(F)(F)F)c1 [XIII-4] |
| > 6.30 | C[C@H]1c2cc(Oc3ccnc4[nH]c(CO)cc34)ccc2CCN1C(=O)Nc1ccc(CN2CCN(CCO)CC2)c(C(F)(F)F)c1 [XIII-5] |
| > 6.30 | C[C@H]1c2cc(Oc3ccnc4[nH]c(C5(O)COC5)cc34)ccc2CCN1C(=O)Nc1ccc(CN2CCN(CCO)CC2)c(C(F)(F)F)c1 [XIII-6] |
